Measured values reported in patent US20220162192A1 (ESCAPE Bio, Inc., priority 2019, published 2022).
pIC50: −log10 of the molar value.

What was measured:
[1] = biological target: T1, Recombinant wild type LRRK2 protein (Homo sapiens, UniProt Q5S007); experiment: LanthaScreen Kinase Activity Assay (TR-FRET), wild type LRRK2; type: biochemical; conditions: class symbols; 25 μM ATP, 400 nM LRRKtide, 2.9 nM kinase, 60 min at room temperature; read-out: LRRK2 WT IC50
T1 construct: purchased Life Technologies PR8604B
Procedure, shortened: (§1)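 Recombinant wild-type or G2019S LRRK2 (2.9 nM final) phosphorylated fluorescein-LRRKtide (400 nM) with 25 μM ATP in 50 mM Tris pH 8.5, 5 mM MgCl2, 1 mM EGTA, 0.01% Brij-35, 2 mM DTT for 60 min at RT. After EDTA stop, Tb-anti-pERM TR-FRET (520/495 nm ratio) was read. IC50 values came from 11-point, 3-fold compound dilutions.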

[2] = biological target: T2, Recombinant G2019S-LRRK2 protein (Homo sapiens, UniProt Q5S007, G2019S); experiment: LanthaScreen Kinase Activity Assay (TR-FRET), G2019S-LRRK2; type: biochemical; conditions: class symbols; 25 μM ATP, 400 nM LRRKtide, 2.9 nM kinase, 60 min at room temperature
T2 construct: purchased Life Technologies PV4881
Procedure, shortened: as §1

T1 sequence (Q5S007 whole entry): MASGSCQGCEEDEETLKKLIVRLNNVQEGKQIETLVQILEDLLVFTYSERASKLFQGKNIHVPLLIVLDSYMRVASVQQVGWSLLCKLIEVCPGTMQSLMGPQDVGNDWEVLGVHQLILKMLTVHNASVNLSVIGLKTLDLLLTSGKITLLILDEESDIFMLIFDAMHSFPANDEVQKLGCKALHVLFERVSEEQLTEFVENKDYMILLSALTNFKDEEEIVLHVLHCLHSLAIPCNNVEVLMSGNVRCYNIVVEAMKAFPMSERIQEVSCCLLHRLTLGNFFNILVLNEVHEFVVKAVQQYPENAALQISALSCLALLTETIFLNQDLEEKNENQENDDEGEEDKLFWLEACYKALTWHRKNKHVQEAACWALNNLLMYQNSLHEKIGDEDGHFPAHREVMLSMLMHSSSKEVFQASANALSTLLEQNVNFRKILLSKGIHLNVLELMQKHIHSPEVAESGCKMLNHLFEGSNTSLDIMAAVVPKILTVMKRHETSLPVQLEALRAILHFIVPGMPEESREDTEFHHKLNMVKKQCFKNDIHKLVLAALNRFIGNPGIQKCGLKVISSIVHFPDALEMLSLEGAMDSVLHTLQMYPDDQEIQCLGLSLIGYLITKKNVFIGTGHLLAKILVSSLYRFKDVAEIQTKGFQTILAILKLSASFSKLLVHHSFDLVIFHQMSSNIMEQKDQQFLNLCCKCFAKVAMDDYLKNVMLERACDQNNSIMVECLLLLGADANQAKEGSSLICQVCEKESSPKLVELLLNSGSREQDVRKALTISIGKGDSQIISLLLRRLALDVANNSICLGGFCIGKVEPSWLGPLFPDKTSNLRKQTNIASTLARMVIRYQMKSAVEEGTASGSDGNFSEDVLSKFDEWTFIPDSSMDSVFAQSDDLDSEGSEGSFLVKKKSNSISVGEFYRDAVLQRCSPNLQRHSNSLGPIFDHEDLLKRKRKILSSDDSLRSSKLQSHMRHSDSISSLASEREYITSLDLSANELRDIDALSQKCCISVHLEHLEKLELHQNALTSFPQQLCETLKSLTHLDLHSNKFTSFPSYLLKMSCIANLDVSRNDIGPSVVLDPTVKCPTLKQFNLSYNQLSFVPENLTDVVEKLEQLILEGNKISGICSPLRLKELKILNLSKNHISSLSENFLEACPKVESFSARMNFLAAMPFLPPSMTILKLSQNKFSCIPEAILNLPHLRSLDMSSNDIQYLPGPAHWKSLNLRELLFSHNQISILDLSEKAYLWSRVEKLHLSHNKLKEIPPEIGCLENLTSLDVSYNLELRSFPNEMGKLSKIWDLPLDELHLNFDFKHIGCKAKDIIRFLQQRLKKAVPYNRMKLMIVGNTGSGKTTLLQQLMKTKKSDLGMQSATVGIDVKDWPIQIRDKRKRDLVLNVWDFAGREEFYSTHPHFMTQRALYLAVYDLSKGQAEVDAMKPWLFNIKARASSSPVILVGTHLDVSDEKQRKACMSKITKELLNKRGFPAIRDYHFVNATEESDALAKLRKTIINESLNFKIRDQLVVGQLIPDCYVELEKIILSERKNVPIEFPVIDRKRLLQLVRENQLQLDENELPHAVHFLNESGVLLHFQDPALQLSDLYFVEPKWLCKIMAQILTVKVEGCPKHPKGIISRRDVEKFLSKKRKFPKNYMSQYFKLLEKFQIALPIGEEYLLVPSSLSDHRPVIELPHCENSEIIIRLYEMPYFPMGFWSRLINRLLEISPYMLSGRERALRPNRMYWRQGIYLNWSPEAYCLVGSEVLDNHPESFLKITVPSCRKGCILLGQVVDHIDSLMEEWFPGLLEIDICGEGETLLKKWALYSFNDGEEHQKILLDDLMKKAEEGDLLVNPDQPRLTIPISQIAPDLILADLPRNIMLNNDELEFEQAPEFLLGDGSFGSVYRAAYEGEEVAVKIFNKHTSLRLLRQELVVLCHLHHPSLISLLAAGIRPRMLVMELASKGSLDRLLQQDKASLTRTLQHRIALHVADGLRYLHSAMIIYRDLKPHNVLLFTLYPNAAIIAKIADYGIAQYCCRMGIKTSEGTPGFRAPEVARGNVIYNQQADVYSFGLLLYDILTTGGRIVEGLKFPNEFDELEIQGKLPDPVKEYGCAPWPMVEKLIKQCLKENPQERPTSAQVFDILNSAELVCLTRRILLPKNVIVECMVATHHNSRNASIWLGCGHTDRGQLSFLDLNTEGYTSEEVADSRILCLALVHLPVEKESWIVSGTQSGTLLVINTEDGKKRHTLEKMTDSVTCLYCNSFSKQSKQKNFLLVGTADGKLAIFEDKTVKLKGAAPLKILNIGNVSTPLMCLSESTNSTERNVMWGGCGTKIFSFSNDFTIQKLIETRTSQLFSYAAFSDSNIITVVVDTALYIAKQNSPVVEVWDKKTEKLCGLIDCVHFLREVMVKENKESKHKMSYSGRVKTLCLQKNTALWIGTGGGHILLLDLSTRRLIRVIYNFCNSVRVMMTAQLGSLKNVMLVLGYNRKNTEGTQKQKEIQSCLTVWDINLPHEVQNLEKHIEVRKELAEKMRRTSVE
T2 sequence (Q5S007 whole entry G2019S): as the sequence (Q5S007 whole entry) above, with G2019S counted along it

Row | SMILES | pIC50 [1] | pIC50 [2]
1 | Cc1cc(-c2n[nH]c3ccc(NC(=O)c4c(F)cc5c(cnn5C)c4F)cc23)n(C)n1 [Example 79, N-(3-(1,3-Dimethyl-1H-pyrazol-5-yl)-1H-indazol-5-yl)-4,6-difluoro-1-methyl-1H-indazole-5-carboxamide] | 5.00 to 6.00 | 6.00 to 7.00
2 | Cc1cc2nn[nH]c2cc1C(=O)Nc1ccc2[nH]nc(Br)c2c1 [Example 15, N-(3-Bromo-1H-indazol-5-yl)-5-methyl-1H-benzo[d][1,2,3]triazole-6-carboxamide] | 5.00 to 6.00 | ≥ 7.00
3 | Cc1cc2c(C)nnn2c(C)c1C(=O)Nc1ccc2[nH]nc(-c3ccccc3)c2c1 [Example 64, 3,5,7-Trimethyl-N-(3-phenyl-1H-indazol-5-yl)-[1,2,3]triazolo[1,5-a]pyridine-6-carboxamide] | 6.00 to 7.00 | ≥ 7.00
4 | COc1ncccc1-c1n[nH]c2ccc(NC(=O)c3c(F)cc4c(cnn4C)c3F)cc12 [Example 81, 4,6-Difluoro-N-(3-(2-methoxypyridin-3-yl)-1H-indazol-5-yl)-1-methyl-1H-indazole-5-carboxamide] | 6.00 to 7.00 | ≥ 7.00
5 | Cn1ncc2c(F)c(C(=O)Nc3ccc4[nH]nc(-c5cnn(C(F)F)c5)c4c3)c(F)cc21 [Example 86, N-(3-(1-(Difluoromethyl)-1H-pyrazol-4-yl)-1H-indazol-5-yl)-4,6-difluoro-1-methyl-1H-indazole-5-carboxamide] | ≥ 7.00 | ≥ 7.00
6 | Cc1nocc1-c1n[nH]c2ccc(NC(=O)c3c(F)cc4c(cnn4C)c3F)cc12 [Example 30, 4,6-Difluoro-1-methyl-N-(3-(3-methylisoxazol-4-yl)-1H-indazol-5-yl)-1H-indazole-5-carboxamide] | 6.00 to 7.00 | ≥ 7.00
7 | O=C(Nc1ccc2[nH]nc(-c3ccccc3)c2c1)c1cc2[nH]ncc2cc1Br [Example 24, 5-Bromo-N-(3-phenyl-1H-indazol-5-yl)-1H-indazole-6-carboxamide] | ≥ 7.00 | ≥ 7.00
8 | Cc1cc2[nH]cnc2cc1C(=O)Nc1ccc2[nH]nc(Br)c2c1 [Example 18, N-(3-Bromo-1H-indazol-5-yl)-6-methyl-1H-benzo[d]imidazole-5-carboxamide] | 6.00 to 7.00 | 6.00 to 7.00
9 | Cc1ccccc1-c1n[nH]c2ccc(NC(=O)c3c(F)cc4c(cnn4C)c3F)cc12 [Example 77, 4,6-Difluoro-1-methyl-N-(3-(o-tolyl)-1H-indazol-5-yl)-1H-indazole-5-carboxamide] | 5.00 to 6.00 | 5.00 to 6.00
10 | Cc1cn2cncc2cc1C(=O)Nc1ccc2[nH]nc(-c3ccccc3)c2c1 [Example 52, 6-Methyl-N-(3-phenyl-1H-indazol-5-yl)imidazo[1,5-a]pyridine-7-carboxamide] | ≥ 7.00 | ≥ 7.00
11 | Cc1cc2cn[nH]c2cc1C(=O)Nc1ccc2[nH]nc(-c3ccccc3)c2c1 [Example 23, 5-Methyl-N-(3-phenyl-1H-indazol-5-yl)-1H-indazole-6-carboxamide] | ≥ 7.00 | ≥ 7.00
12 | Cn1ncc2c(F)c(C(=O)Nc3ccc4[nH]nc(-c5ccsc5)c4c3)c(F)cc21 [Example 100, 4,6-Difluoro-1-methyl-N-(3-(thiophen-3-yl)-1H-indazol-5-yl)-1H-indazole-5-carboxamide] | ≥ 7.00 | ≥ 7.00
13 | Cn1ncc2c(F)c(C(=O)Nc3ccc4[nH]nc(-c5cccnc5)c4c3)c(F)cc21 [Example 32, 4,6-Difluoro-1-methyl-N-(3-(pyridin-3-yl)-1H-indazol-5-yl)-1H-indazole-5-carboxamide] | ≥ 7.00 | ≥ 7.00
14 | Cc1n[nH]c2ccc(NC(=O)c3ccc4nn[nH]c4c3)cc12 [Example 9, N-(3-Methyl-1H-indazol-5-yl)-1H-benzo[d][1,2,3]triazole-6-carboxamide] | 5.00 to 6.00 | 5.00 to 6.00
15 | Cc1cc(-c2n[nH]c3ccc(NC(=O)c4c(F)cc5c(cnn5C)c4F)cc23)cc(C)n1 [Example 83, N-(3-(2,6-Dimethylpyridin-4-yl)-1H-indazol-5-yl)-4,6-difluoro-1-methyl-1H-indazole-5-carboxamide] | ≥ 7.00 | ≥ 7.00
16 | CN(C)c1cccc(-c2n[nH]c3ccc(NC(=O)c4c(F)cc5c(cnn5C)c4F)cc23)c1 [Example 88, N-(3-(3-(Dimethylamino)phenyl)-1H-indazol-5-yl)-4,6-difluoro-1-methyl-1H-indazole-5-carboxamide] | ≥ 7.00 | ≥ 7.00
17 | Cc1cccc(-c2n[nH]c3ccc(NC(=O)c4c(F)cc5c(cnn5C)c4F)cc23)c1 [Example 76, 4,6-Difluoro-1-methyl-N-(3-(m-tolyl)-1H-indazol-5-yl)-1H-indazole-5-carboxamide] | ≥ 7.00 | ≥ 7.00

More lines, now with the values ahead:

Row | pIC50 [1] | pIC50 [2] | SMILES
18 | ≥ 7.00 | ≥ 7.00 | Cc1cc2cncn2c(C)c1C(=O)Nc1ccc2[nH]nc(-c3ccoc3)c2c1 [Example 151, N-(3-(Furan-3-yl)-1H-indazol-5-yl)-5,7-dimethylimidazo[1,5-a]pyridine-6-carboxamide]
19 | 6.00 to 7.00 | ≥ 7.00 | Cc1c(C(=O)Nc2ccc3[nH]nc(-c4cnco4)c3c2)ncc2c1cnn2C [Example 169, 1,4-Dimethyl-N-(3-(oxazol-5-yl)-1H-indazol-5-yl)-1H-pyrazolo[3,4-c]pyridine-5-carboxamide]
20 | 6.00 to 7.00 | ≥ 7.00 | Cc1cc(-c2n[nH]c3ccc(NC(=O)c4c(F)cc5c(cnn5C)c4F)cc23)c(C)o1 [Example 101, N-(3-(2,5-Dimethylfuran-3-yl)-1H-indazol-5-yl)-4,6-difluoro-1-methyl-1H-indazole-5-carboxamide]
21 | ≥ 7.00 | ≥ 7.00 | Cc1cc2cnnn2c(C)c1C(=O)Nc1ccc2[nH]nc(-c3ccco3)c2c1 [Example 155, N-(3-(Furan-2-yl)-1H-indazol-5-yl)-5,7-dimethyl-[1,2,3]triazolo[1,5-a]pyridine-6-carboxamide]
22 | 6.00 to 7.00 | ≥ 7.00 | Cn1ncc2nc(C(=O)Nc3ccc4[nH]nc(-c5cnco5)c4c3)ccc21 [Example 165, 1-Methyl-N-(3-(oxazol-5-yl)-1H-indazol-5-yl)-1H-pyrazolo[4,3-b]pyridine-5-carboxamide]
23 | ≥ 7.00 | ≥ 7.00 | Cc1cc2c(cnn2C)c(C)c1C(=O)Nc1ccc2[nH]nc(-c3ccoc3)c2c1 [Example 157, N-(3-(Furan-3-yl)-1H-indazol-5-yl)-1,4,6-trimethyl-1H-indazole-5-carboxamide]
24 | 6.00 to 7.00 | ≥ 7.00 | O=C(Nc1ccc2[nH]nc(-c3ccoc3)c2c1)C1CCc2nncn2C1 (single isomer, unassigned) [Example 162b]
25 | 6.00 to 7.00 | ≥ 7.00 | Cn1ncc2c1CCC(C(=O)Nc1ccc3[nH]nc(-c4ccoc4)c3c1)C2 (single isomer, unassigned) [Example 161b]
26 | 6.00 to 7.00 | ≥ 7.00 | Cn1ncc2c(F)c(C(=O)Nc3cc4c(-c5ccccc5)n[nH]c4cc3F)c(F)cc21 [Example 143, 4,6-Difluoro-N-(6-fluoro-3-phenyl-1H-indazol-5-yl)-1-methyl-1H-indazole-5-carboxamide]
27 | 6.00 to 7.00 | ≥ 7.00 | Cn1cc2c(n1)CCC(C(=O)Nc1ccc3[nH]nc(-c4ccoc4)c3c1)C2 (single isomer, unassigned) [Example 161d]
